Test results as given in patent US5432172A, “Biological applications of alkaloids derived from the tunicate Eudistoma sp” (The Research Foundation of State University of New York, priority 1993, dated 1995).
Like-named read-outs stand apart in the source and are kept apart here.

Assays:
[1] = system: neuroblastoma N1E-115 cells; assay: Growth and morphological differentiation of mouse neuroblastoma N1E-115 cells; conditions: for range of effective concentrations that inhibited cell proliferation and induced morphological differentiation / effects on cell appearance: N1E-115 cells; for range of effective concentrations that inhibited cell proliferation and induced morphological differentiation: below range no noticeable effect, above range cytotoxic; for effects on cell appearance: morphology; for most effective concentration for the cells tested: summary, cells tested in the present invention
Protocol: A,B: Untreated cells, 3 (A) and 8 (B) days after subculture. C,D: Cells grown for 3 (C) and 8 (D) days with 12.8 μM Debromoshermilamine. E,F: Cells grown for 7 days with Isosegoline A (39 μM) and Norsegoline (16.3 μM), respectively.
A,B: Untreated cells 3 (A) and 6 (B) days after subculture. C,D: Cells grown for 3 (C) and 6 (D) days with 50 μM forskolin. E,F: Cells grown for 3 (E) and 6 (F) days with 39 μM Segoline A. G,H: Cells grown for 3 (G) and 6 (H) days with 0.14 μM Eilatin.
Cells were grown for six days in the absence of drugs (A), or in the presence of: 10 μM 4-methylpyrido[2,3,4-kl]acridine (B), 4 μM pyrido[2,3,4-kl]acridine (C), 0.08 μM Eilatin (D), 75 μM forskolin (E).
The inventors chose the neuroblastoma N1E-115 cells because these tumor-derived cells can be induced to express characteristic neuronal properties by a variety of procedures see Spector, "Electrophysiology of clonal nerve cell lines. In: Excitable Cells in Tissue Culture", Nelson et al. eds., Plenum, New York 247-277 (1981) and can serve as a useful experimental system in which to explore the effects of the Eudistoma alkaloids on the biological properties of both cancer cells and neuronal cells.
The N1E-115 cells were exposed to various concentrations of the six (6) natural products shown in FIG. 1, and of the two synthetic pyridoacridines shown in Scheme III of FIG. 2. […] A,B: Untreated cells, 3 (A) and 8 (B) days after subculture. C,D: Cells grown for 3 (C) and (8) days with 12.8 μM Debromoshermilamine. E,F: Cells grown for 7 days with Isosegoline A (39 μM) and Norsegoline (16.3 μM), respectively. FIG. 5 illustrates the appearance of N1E-115 cells 6 days after replating in the absence (A) and in the presence of 10 μM 4-methylpyrido[2,3,4-kl]acridine (B), or 4 μM pyrido[2,3,4-kl]acridine.

pyruvate kinase = assay: Pyruvate kinase activity in cultured rat hepatoma FAO cells; assay type: cell-based; conditions: for Km: control 0.14, read-out: Km for the substrate phosphoenolpyruvate (PEP); for inhibition of pyruvate kinase activity: submaximal substrate concentrations; for rise in the Km for substrate (phosphoenolpyruvate): versus control
Protocol: FIG. 11 is a graph showing the effects of the Eudistoma alkaloids on pyruvate kinase activity in cultured rat hepatoma FAO cells. Enzyme activity v/Vmax was assayed as described in Example IV in partially purified extracts from cells incubated for 1 h in the absence ( ) or presence of 100 μM CPT-cAMP (.cndot.) and 26 μM segoline A ( ) as a function of substrate concentrations (phosphoenolpyruvate, PEP).
1. Activity of pyruvate kinase--a key glycolytic enzyme whose activity is inhibited by cAMP-dependent phosphorylation.
FIG. 11 is a graph showing the effects of the Eudistoma alkaloids on pyruvate kinase activity in cultured rat hepatoma FAO cells. Enzyme activity v/Vmax was assayed in partially purified extracts from cells incubated for 1 h in the absence (squares) or presence of 100 μM 8-(4-chlorophenylthio) cyclic AMP (CPT-cAMP)-CPT-cAMP (circles) and 26 μM Segoline A (triangles) as a function of substrate concentrations (phosphoenolpyruvate, PEP).

PEPCK mRNA = assay: Levels of PEPCK mRNA in FTO-2B rat hepatoma cells (Northern blot); assay type: cell-based; conditions: segoline A 5, 26 and 52 μM; Debromoshermilamine 2.6, 12.8 and 38.4 μM; 4 hours
Protocol: FIG. 12 is a graph showing the effects of Eudistoma alkaloids on levels of PEPCK mRNA in FTO-2B rat hepatoma cells. The cells were exposed for 4 hours to serum-free medium which contained: 5 μM CPT-cAMP (lane 1), 5, 26 and 52 μM segoline A (lanes 2-4), 2.6, 12.8 and 38.4 μM Debromoshermilamine (lanes 5-7) or to serum-free medium alone (lane 8).
2. Induction of mRNA for P-enolpyruvate carboxykinase (PEPCK)--a key enzyme in the gluconeogenesis pathway in liver and kidney cells whose gene transcription rate is stimulated by cAMP see Hod et al., N.Y. Acad. Sci., 478, 31-45 (1986) and Hod et an., J. Biol. Chem., 263, 7747-7752 (1988).
FIG. 12 is a graph showing the effects of Eudistoma alkaloids on levels of PEPCK mRNA in FTO-2B rat hepatoma cells. The cells were exposed to medium which contained: 5 μM 8-CPT-cAMP, 5, 26 and 52 μM Segoline A, 2.6, 12.8 and 38.4 μM Debromoshermilamine or to control medium. The level of mRNA was determined by Northern blot analysis according to Hod et al., J. Biol. Chem., 259, 15603-15608 (1984) using the plasmid pPCK10rc as a hybridization probe, and quantified by densitometric scanning of the autoradiograms which is shown on the left.

[2] = system: rat anterior pituitary cells; assay: Secretion of growth hormone (GH) from dispersed rat anterior pituitary cells; assay type: cell-based; conditions: 3 h; increasing concentrations
From the text: FIG. 13 is a graph showing the effects of Debromoshermilamine on the secretion of growth hormone (GH) from dispersed rat anterior pituitary cells. Each bar represents the mean ±s.e.m of four wells.
3. Growth hormone release from anterior pituitary cells which is stimulated by a number of hormonal factors that activate the adenylyl cyclase system and elevate cellular cAMP levels, see, Bilezikjian et al., Endocrinology, 113, 1726-1731 (1983); Ray et al., Mol. Cell. Endocrinology, 45, 175-182 (1986) and Gabriel et al., Neuroendocrinology, 50 170-176 (1989).
FIG. 13 is a graph showing the effects of debromoshermilamine on the secretion of growth hormone (GH) from dispersed rat anterior pituitary cells. Cells grown in 24-well multiwell plates were incubated for 3 h in fresh medium (DME) in the absence (control) or presence of 1 mM DbcAMP, and increasing concentrations of Debromoshermilamine as indicated. Hormone secretion was measured using rat GH radioimmunoassay. Each bar represents the mean ±s.e.m of four wells.

[3] = system: normal hamster fibroblast NIL8 cell line; assay: Growth and morphology of normal NIL8 fibroblast cells; assay type: cell-based; conditions: 12.8 μM Debromoshermilamine, 5 days, single application
Protocol: Cells were grown for 5 days in the absence of drugs (A), and in the presence of 25 μM forskolin (B), 1.4 μM Eilatin (C), or 12.8 μM Debromoshermilamine (D). […]
As illustrated, a single application of 1.4 μM Eilatin or 12.8 μM Debromoshermilamine to NIL8 cells produced effects which are strikingly similar to those obtained by chronically treating time cells with agents that elevate or mimic cAMP. […] This predilection towards cancer cells is a very desirable property in developing potential drugs for the treatment of cancer.

| Structure (SMILES) | effect on cell division and morphological differentiation ([1]; 39 μM Segoline A, 3 days, single application) | long-term effect on cell division ([1]; 39 μM Segoline A, 6 days, single application) | range of effective concentrations that inhibited cell proliferation and induced morphological differentiation [1] | effects on cell appearance [1] | most effective concentration for the cells tested [1] [µM] | Km (pyruvate kinase; 26 μM segoline A, 1 h) [µM] | inhibition of pyruvate kinase activity (pyruvate kinase) | rise in the Km for substrate (phosphoenolpyruvate) (pyruvate kinase) | induction of PEPCK mRNA (PEPCK mRNA) | growth hormone release [2] | Km (pyruvate kinase; concentration of alkaloid not given) [µM] | effect on cell shape of NIL8 cells [3] | effect on growth of NIL8 cells [3] |
| --- | --- | --- | --- | --- | --- | --- | --- | --- | --- | --- | --- | --- | --- |
| COc1cc2c3c4c(ccnc14)-c1ccccc1N3C1(C)C(=O)NC(=O)C2C1C (stereo not shown) [Segoline A] | inhibited cell division and induced morphological differentiation | cell division is completely blocked | 12-52 μM | flattened cell bodies as well as numerous long neurites | 12 to 52 | 440 | inhibit pyruvate kinase activity | ca. 3 fold | stimulate the induction of PEPCK mRNA in a dose-dependent manner |  |  |  |  |
| CC(=O)NCCc1c2c(c3nccc4c3c1Nc1ccccc1-4)NC(=O)CS2 [Debromoshermilamine] |  |  | 6-32 μM | a large proportion of very flat cells of considerable size and relatively few neurites | 6 to 32 |  | inhibit pyruvate kinase activity | ca. 3 fold | stimulate the induction of PEPCK mRNA in a dose-dependent manner | stimulate growth hormone release, again, in a dose-dependent manner | 460 | flatter | growth was inhibited |
